In patent US6716809B1, “Mage-A3 peptides presented by HLA class molecules” (priority 1997, dated 2004):

Tested on: CD4+ clone 436/B6.37 (B6/37)
Assay: IFN-γ/TNF production by CD4+ clone B6/37 (clone 37) stimulated with peptide- or protein-pulsed EBV-B cells
Format: cell-based, human
Settings: for IFN-γ production by clone B6/37, truncated peptides: autologous EBV-B cells pulsed with truncated peptides (FIG. 8); for IFN-γ production by clone 37: autologous LB 1555 EBV-B cells
Description: The microcultures that contained proliferating CD4^+ T cells were assessed around 35 days after the start of the culture for their capacity to produce TNF and/or IFN-γ when stimulated with autologous EBV-B cells pulsed with the His-MAGE-A3 protein. Autologous EBV-B cells (500,000/ml) were incubated for 18-20 hours at 37° C. in the presence of 20 μg/ml of His-MAGE-A3 protein, or Ovalbumin (Sigma) as a negative control. EBV-B cells referred to herein are B cells which were immortalized with Epstein Barr virus. The EBV-B cells were prepared according to art-standard procedures. Protein-pulsed EBV-B cells were washed and added at 5,000 per round-bottomed microwell to 2,500 CD4^+ T lymphocytes in 150 μl of complete Iscove's medium supplemented with L-glutamine, L-arginine, L-asparagine, 10% human serum and IL-2 (25 U/ml). After 18-20 hours, supernatants were harvested and assessed for TNF content by testing the cytotoxic effect of the supernatants on TNF-sensitive WEHI 164 clone 13 cells as previously described (Espevik and Nissen-Meyer, J. Immunol. Methods 95:99-105, 1986) in a MTT colorimetric assay as previously described (Hansen et al., J. Immunol. Methods 119:203-210, 1989; Traversari et al., Immunogenetics 35:145-152, 1992). IFN-γ production was measured using an ELISA assay developed in our laboratory (see below) with reagents from Medgenix Diagnostics-Biosource (Fleurus, Belgium). Inhibition with mAbs W6/32 (anti-HLA class I) or 2B6 (anti-HLA-DR) was performed by addition of a 1/20 dilution of ascites during the experiment. Cytokine secretion in response to autologous EBV-B cells pulsed with MAGE-A3 was considered significant if it was at least twofold above the background response of T cells to EBV-B cells pulsed with ovalbumin, and if it exceeded 500 pg of IFN-γ or 50 pg/ml of TNF per ml.
In order to identify the MAGE-A3 peptides recognized by these CD4^+ clones, 16 amino acid peptides, corresponding to parts of the MAGE-A3 protein sequence were synthesized, loaded on the autologous EBV-B cells and tested for recognition (FIGS. 4 and 5). Peptides were synthesized using F-moc for transient NH2-terminal protection and were characterized using mass spectrometry. […] Lyophilized synthetic peptides were dissolved in DMSO (Merck) and used at a final concentration of 500 μM, 50 μM or 5 μg/ml. EBV-B cells (5,000 per round-bottomed microwell) were incubated 2 hours at 37° C., 8% CO2 in the presence of the different peptides, the indicated concentrations representing the peptide concentration during the incubation step. CD4^+ clones were then added at 2,500 cells per well. Assay medium was Iscove's medium supplemented with L-glutamine, L-arginine, L-asparagine, 10% human serum and IL-2 (25 U/ml). After 18-20 hours, supernatants were harvested and assessed for TNF-α and/or IFN-γ secretion. IFN-γ production was measured using an ELISA test (20-4000 pg/ml) developed in the laboratory with reagents from Medgenix Diagnostics-Biosource (Fleurus, Belgium).
To further define the HLA-restriction element utilized by clone B6/37, additional EBV-B cell lines were used for peptide presentation as described above (FIG. 7).
Unlike HLA-class I-restricted peptides, class II-restricted peptides usually vary in length and tolerate extensions at both the amino and carboxy termini, because they are not fixed by their ends in the groove. It is therefore difficult to define precisely the length of the antigenic peptide. Therefore a large number of MAGE-A3 peptides were tested at different concentrations (Tables IV and V). […] 2500 cells of clone 37 were then cocultured for 20 h in round-bottomed microwells with 5000 peptide-pulsed cells. IFN-γ released in the supernatant of the cocultures was measured in an ELISA assay. The experiments were performed in triplicate.

[1] = peptide concentration 100 ng/ml
[2] = peptide concentration 300 ng/ml
[3] = peptide concentration 1000 ng/ml

Row | Substance | IFN-γ production by clone B6/37, truncated peptides | IFN-γ production by clone 37 (peptide concentration 1 ng/ml) [pg/mL] | IFN-γ production by clone 37 (peptide concentration 3 ng/ml) [pg/mL] | IFN-γ production by clone 37 (peptide concentration 10 ng/ml) [pg/mL] | IFN-γ production by clone 37 (peptide concentration 30 ng/ml) [pg/mL] | IFN-γ production by clone 37 [1] [pg/mL] | IFN-γ production by clone 37 [2] [pg/mL] | IFN-γ production by clone 37 [3] [pg/mL] | recognition of short peptide by clone 37 (conclusion from Table IV)
1 | ELVHFLLLKYRA (listed as Homo sapiens) [MAGE-A3115-126] | induced significant production |  |  |  |  |  |  |  | 
2 | AELVHFLLLKYRA (listed as Homo sapiens) |  | 134 | 139 | 620 | 2523 | >4000 | >4000 | >4000 | 
3 | AELVHFLLLKYRAR (listed as Homo sapiens) |  | 151 | 272 | 802 | 2862 | >4000 | >4000 | >4000 | well recognized
4 | MAGE-A3116-126: shortened MAGE-A3 peptide, residues 116-126 (LVHFLLLKYRA; listed as Homo sapiens) | reduced amounts |  |  |  |  |  |  |  | 
5 | VAELVHFLLLKYRA (listed as Homo sapiens) |  | 7 | 179 | 87 | 648 | 2534 | >4000 | >4000 | 
6 | ELVHFLLLKYRAR (listed as Homo sapiens) |  | 47 | 192 | 333 | 1899 | 3633 | >4000 | >4000 | 
7 | ELVHFLLLKYRARE (listed as Homo sapiens) |  | 25 | 160 | 166 | 1087 | 3095 | >4000 | >4000 | 
8 | VAELVHFLLLKYRARE (listed as Homo sapiens) |  | 30 | 300 | 376 | 1647 | >4000 | >4000 | >4000 | 
9 | AELVHFLLLKYRARE (listed as Homo sapiens) |  | 38 | 230 | 235 | 1473 | 3837 | >4000 | >4000 | 
10 | VAELVHFLLLKYRAR (listed as Homo sapiens) |  | 146 | 262 | 779 | 2963 | >4000 | >4000 | >4000 | 
11 | VHFLLLKYRA (listed as Homo sapiens) [MAGE-A3117-126] | reduced amounts |  |  |  |  |  |  |  | 
12 | MAGE-A3118-126: shortened MAGE-A3 peptide, residues 118-126 | did not induce the production of significant amounts |  |  |  |  |  |  |  | 
